The data set in a line: toxicity of isoprenoids (compatibility with the body). The following applies: in concentrations of 10 μmol/l. The text has this:
Thus, for example, lycopene and ubichinon are already toxic in concentrations of 10 μmol/l. Squalene, on the other hand, is not toxic, even in concentrations of 100 μmol/l.

In the case of ubichinon, the toxicity result was “toxic”.

For the origin of these results see US8486434B2, “Medical implant containing an antioxidative substance” (Biotronik VI Patent AG, priority 2009, dated 2013).
